According to patent publication US20260199236A1, “PERFLUORINATED MICELLES AND MEDICAL USES THEREOF” (COMMISSARIAT A L'ENERGIE ATOMIQUE ET AUX ENERGIES …, priority 2022, published 2026):

Legend:
[1] = Oxygen release from O2-saturated colloid injected into degassed water; assay type: physicochemical; settings: 200 μL of 7.6 mM surfactant colloid into degassed water
Description: To this end, a small volume of oxygen-saturated micelle colloid was injected with variable PFTD-PEG concentrations into a large volume of degassed water and the release of oxygen was monitored by continuous electrochemical monitoring over time (FIG. 3A). From this set of experiments, a clear correlation between the micelle concentration and the amount of released oxygen was observed. In fact, 15 min after addition of 200 μL of a 5, 10, or 20 mg mL^−1 PFTD-PEG colloid to 100 mL of degassed water, the oxygen concentration reached values of 2.9, 4.3, and 5.6 μM, respectively. As a reference, the oxygen concentration reached only 1.1 μM when the same volume of oxygen-saturated water was added instead of the micelle colloid. The effect of the fluorinated PFTD-PEG micelles on oxygen delivery was compared to that of micelles obtained from commonly used amphiphiles, namely sodium dodecyl sulfate (SDS) and Triton X100.

[2] = Oxygen content decay of O2-saturated dispersions on ambient air equilibration; settings: first-order fit, SDS 9 mM, Triton X-100 3.8 mM; for Release rate (oxygen): PFTD-PEG 3.8 mM
Source text: Another commonly used method consists in measuring the rate of decrease of the oxygen concentration of a given micellar solution from O2-saturation to equilibrium with ambient air. In the case of perfluorinated micelles, any observed difference in deoxygenation rate can be directly related the diffusion of O2 from the perfluorinated core to the aqueous medium while oxygen dissolved in the saturated dispersant (i.e. water) escapes to the atmosphere.
To assess the dioxygen release capacity of PFTD-PEG micelles, colloids (4 mL, c=3.8 mM and 7.6 mM) were pre-saturated with dioxygen under agitation in a sealed round-bottom flask. After saturation, agitation was stopped and the PFTD-PEG micellar suspension was left to equilibrate with ambient air. Evolution of dioxygen concentration in the medium over time was recorded using a dissolved dioxygen sensor.
In this equation, y0 corresponds to the value of y at t=0 s while A corresponds to the amplitude of the curve such that A=Plateau−y0. This model provides essential parameters such as the oxygen half-life and the oxygen release rate from the different micellar suspensions.

Row | Compound | oxygen concentration [1] [mM] | Release rate (oxygen) [2] | t1/2 (oxygen half-life) ([2]; PFTD-PEG 3.8 mM (10 mg mL^−1)) [min]
1 | CCCCCCCCCCCCOS(=O)(=O)[O-].[Na+] [SDS, sodium dodecyl sulfate] | 2.7 | 2.61 ± 0.03 10^−4 s^−1 | 
2 | Triton X-100 | 3.6 | 2.49 ± 0.04 10^−4 s^−1 | 46.422 ± 0.832
